One assay deals with T1, PDE4.
T1 construct: IC50 on phosphodiesterase isozyme 4; other: mean ± S.E.M. (n)
The assay can be described thus: Inhibition of cyclic nucleotide PDE activity (Assay I), PDE4, incl. Lineweaver-Burk analysis. It counts as biochemical, guinea pig. To be noted: mean ± S.E.M. (n); read-out: IC50 on phosphodiesterase isozyme 4. The method, then: (§1) Under a protocol approved by the Animal Care and Use Committee of Taipei Medical University, five male guinea pigs (Hartley), weighing 500-600 g, were sacrificed. The lungs (15 g) or hearts (4 g) taken therefrom were chopped into small pieces and homogenized with a glass/teflon homogenizer (Glas-Col, Terre Haute, Ind., USA) in 10 volumes of cold medium (pH 6.5) containing 20 mM Bis-Tris, 2 mM benzamidine, 2 mM EDTA, 50 mM sodium chloride, 0.1 mM phenylmethanesulfonyl fluoride (PMSF), and 1 mM dithiothreitol. At 4° C., the homogenate was centrifuged at 170 g for 15 min, and the supernatant thereof was then re-centrifuged at 40,000 g for 30 min. […] The column was washed with two bed volumes of homogenate buffer to remove unbound material, where the resin beads therein will bind with proteins, such as PDE proteins. Proteins bound to the Q-sepharose beads were eluted with various concentrations (0.23, 0.34, 0.44, 0.69, and 1.00 M) of NaCl dissolved in homogenate buffer (for each concentration, 40-50 mL elution buffer were applied) at a flow rate of 30 ml/h. Fractions (3 ml each) were collected, and ethylene glycol (EG) was added thereto until a final concentration of 30% (v/v). And then the samples were frozen at −70° C.
(§2) The activities of PDE1-5 in the homogenate were measured with a two-step procedure according to the method of Thompson and Appleman, using cAMP with [^3H]-cAMP or cGMP with [^3 H]-cGMP as substrates. The PDE enzyme prepared (25 μl) with 10 μl inhibitor or the solvents therefor was incubated for 30 min at 37° C. in a total assay buffer, where the final volume of the assay is amounted to 100 μl. In accordance with the features of the PDE isozymes, the assay buffer contains 50 mM Tris/HCl (pH 7.4), 3 mM MgCl2, 1 mM dithiothreitol, and 0.05% BSA, and optionally contains 1 uM cAMP with 0.2 μCi [^3H]-cAMP as a substrate alone or in the presence of 0.1 unit calmodulin with 10 μM CaCl2, or 5 μM cGMP, and 1 μM cGMP with 0.2 μCi [^3H]-cGMP as another substrate alone or in the presence of 0.1 unit calmodulin with 10 μM CaCl2.
(§3) The PDE enzyme and the inhibitors (or their solvent) therefor were mixed and incubated on ice for 30 min previously, and then mixed with the assay buffer. The assay was initiated by transferring the mixture to a water bath at 37° C. Following the other 30 min incubation, the reaction was stopped by transferring the reaction vessel to a bath of boiling water for 3 min. After cooling on ice, 20 μl of the 1 mg/ml of Crotalus atrox venom was added to the reaction mixture, and the mixture was incubated at 37° C. for 10 min. The uncatalyzed substrates, such as cAMP, [^3H]-cAMP, cGMP, or [^3H]-cGMP were removed by the addition of 500 μl of a 1-in-1 Tris-HCl (40 mM) buffer suspension of Dowex resin (1×8-200) with incubation on ice for 30 min, since the bindings of the cyclic nucleotides and the resin. Each tube was then centrifuged for 2 min at 6000 rpm, and 100 μl of the supernatant was removed and counted by a β-counter for calculating the enzyme (PDEs) activity.
The dissociation constant of inhibitor binding (Ki) value was determined from the equation of apparent Km as a function of the inhibitor concentration (insert in A and B, respectively). The slope of the equation is equal to the value of […] (where KM is Michaelis constant). The amounts of the total proteins are calculated based on the analytical method reported by Bradford. In FIGS. 1A and 1B, all enzyme activities are shown as nmole of substrate per mg of proteins per minute (nmole/mg/min) hydrolyzed.
The IC50 values of flavonoids and various reference drugs were calculated using non-linear regression analysis by the software SigmaPlot 7.0 (Sigma Chemical, St. Louis Mo., USA).

In assay [1] the target is T2, high affinity rolipram binding sites (HARBS, PDE4H).
T2 construct: IC50 for displacement of [3H]-rolipram from HARBS; other: 300 μM, guinea pig, preliminary experimental data; other: guinea pig whole brain particulates; over 300 μM not available due
The assay can be described thus: Binding to particulate HARBS of whole brain, displacement of [3H]-rolipram (Assay II). To be noted: 2 nM [3H]-rolipram, guinea pig whole brain particulates, FIG. 2; read-out: IC50 for displacement of [3H]-rolipram from HARBS. Set-up: species or system guinea pig. How it is done: The binding experiments are carried on basis of the methods of Schneider et al. and Zhao et al. with a small modification. Under a protocol approved by the Animal Care and Use Committee of Taipei Medical University, five male guinea pigs (Hartley), weighing 500-600 g, were anesthetized. The whole brains taken therefrom were homogenized with in 10 volumes of cold medium (pH 6.5) containing 20 mM Bis-Tris, 2 mM benzamidine, 2 mM EDTA, 50 mM sodium chloride, 0.1 mM phenylmethanesulfonyl fluoride (PMSF), and 1 mM dithiothreitol. At 4° C., the homogenate was centrifuged at 170 g for 15 min for removing blood vessels and connective tissues, and the supernatant thereof was then re-centrifuged at 40,000 g for 30 min for separating the particulates from the cytosol of cells.
After incubation, the reaction was stopped by transferring the reaction vessel to a bath of crashed ice. Then the reaction mixture was filtered through a punched glass fiber filter (Whatman GF/B) placed in a mini funnel, which was adopted to a 1.5 ml of Eppendorff's tube for collecting the filtrate in the mini centrifuge at 1000 rpm for 10 seconds. By the same way (centrifugation), it is further washed with 0.3 ml reaction buffer each for three times. The Whatman GF/B filter was mixed with 2 ml of cocktail and counted by the β-scintillation counter (Backman, Fullerton, Calif., USA) for counting the radioactivity thereof.

A further assay concerns PDE1. The assay is described as follows: Inhibition of cyclic nucleotide PDE activity (Assay I), PDE1. It counts as biochemical, guinea pig. To be noted: mean ± S.E.M. (n); read-out: IC50 on phosphodiesterase isozyme 1. How it is done: Under a protocol approved by the Animal Care and Use Committee of Taipei Medical University, five male guinea pigs (Hartley), weighing 500-600 g, were sacrificed. The lungs (15 g) or hearts (4 g) taken therefrom were chopped into small pieces and homogenized with a glass/teflon homogenizer (Glas-Col, Terre Haute, Ind., USA) in 10 volumes of cold medium (pH 6.5) containing 20 mM Bis-Tris, 2 mM benzamidine, 2 mM EDTA, 50 mM sodium chloride, 0.1 mM phenylmethanesulfonyl fluoride (PMSF), and 1 mM dithiothreitol. At 4° C., the homogenate was centrifuged at 170 g for 15 min, and the supernatant thereof was then re-centrifuged at 40,000 g for 30 min. The final supernatant fraction was filtered through the 0.22 μm filter and applied to a Q-sepharose fast flow column (2.2×28 cm), which is pre-washed and pre-equilibrated in homogenization buffer. The column was washed with two bed volumes of homogenate buffer to remove unbound material, where the resin beads therein will bind with proteins, such as PDE proteins. Proteins bound to the Q-sepharose beads were eluted with various concentrations (0.23, 0.34, 0.44, 0.69, and 1.00 M) of NaCl dissolved in homogenate buffer (for each concentration, 40-50 mL elution buffer were applied) at a flow rate of 30 ml/h. Fractions (3 ml each) were collected, and ethylene glycol (EG) was added thereto until a final concentration of 30% (v/v). And then the samples were frozen at −70° C. Under these conditions, the enzyme activity was stable for at least 3 months.
In order to eliminate possible contamination of PDE5 by PDE1, the above-collected fractions with enzyme activity was further purified on a calmodulin-agarose column. The column (1.6 cm×4 cm) was pre-equilibrated by a buffer A, which contains 20 mM Bis-tris, 1 mM dithiothreitol, 2 mM benzamidine, 50 mM NaCl, 3 mMMgCl2, 0.1 mM CaCl2, and 0.1 mM PMSF, pH 6.5. The sample (the mixture of PDE5 and PDE1), being purified by the above-mentioned column, with the CaCl2 concentration thereof adjusted to at least 2 mM previously, was loaded and allowed to be absorbed on the gel for 30 min. Then, the PDE isozymes were eluted by stepwise elution using 20 ml of buffer A with 1 M NaCl followed by 20 ml of buffer A with 1 M NaCl and with 1 mM EGTA. PDE5 was collected first followed by PDE1.
as §2, with “CaCl2. In assay of enzyme inhibition, the assay mixture contained with the inhibitors at various concentrations of flavonoids in the Table 1 or the selective PDE1-5 inhibitors as reference drugs. For example, the selective PDE1-5 inhibitors are vinpocetin [30], EHNA [31], milrinone, Ro 20-1724 [33], and zaprinast, respectively.” for “CaCl2.”
The PDE enzyme and the inhibitors (or their solvent) therefor were mixed and incubated on ice for 30 min previously, and then mixed with the assay buffer. The assay was initiated by transferring the mixture to a water bath at 37° C. Following the other 30 min incubation, the reaction was stopped by transferring the reaction vessel to a bath of boiling water for 3 min. After cooling on ice, 20 μl of the 1 mg/ml of Crotalus atrox venom was added to the reaction mixture, and the mixture was incubated at 37° C. for 10 min. […]

The next assay concerns PDE3. The assay can be described thus: Inhibition of cyclic nucleotide PDE activity (Assay I), PDE3. The assay is classed as biochemical, guinea pig. To be noted: mean ± S.E.M. (n); read-out: IC50 on phosphodiesterase isozyme 3. How it is done: as §1, §2, §3
(§4) The IC50 values of flavonoids and various reference drugs were calculated using non-linear regression analysis by the software SigmaPlot 7.0 (Sigma Chemical, St. Louis Mo., USA). All values are shown as the mean±S.E.M. Differences among values, which are equal or greater to three groups, were statistically calculated by one-way analysis of variance (ANOVA), and then determined by the least significant difference (LSD). The difference between two values, however, was determined by use of Student's unpaired t-test. Differences were considered statistically significant if the P-value was less than 0.05.

A further assay deals with PDE4H (HARBS). To be noted: references [24-26]; cited from earlier work.
The next assay deals with T3, PDE2 (Cavia porcellus, UniProt A0A286XUV5).
T3 sequence (A0A286XUV5 22-936): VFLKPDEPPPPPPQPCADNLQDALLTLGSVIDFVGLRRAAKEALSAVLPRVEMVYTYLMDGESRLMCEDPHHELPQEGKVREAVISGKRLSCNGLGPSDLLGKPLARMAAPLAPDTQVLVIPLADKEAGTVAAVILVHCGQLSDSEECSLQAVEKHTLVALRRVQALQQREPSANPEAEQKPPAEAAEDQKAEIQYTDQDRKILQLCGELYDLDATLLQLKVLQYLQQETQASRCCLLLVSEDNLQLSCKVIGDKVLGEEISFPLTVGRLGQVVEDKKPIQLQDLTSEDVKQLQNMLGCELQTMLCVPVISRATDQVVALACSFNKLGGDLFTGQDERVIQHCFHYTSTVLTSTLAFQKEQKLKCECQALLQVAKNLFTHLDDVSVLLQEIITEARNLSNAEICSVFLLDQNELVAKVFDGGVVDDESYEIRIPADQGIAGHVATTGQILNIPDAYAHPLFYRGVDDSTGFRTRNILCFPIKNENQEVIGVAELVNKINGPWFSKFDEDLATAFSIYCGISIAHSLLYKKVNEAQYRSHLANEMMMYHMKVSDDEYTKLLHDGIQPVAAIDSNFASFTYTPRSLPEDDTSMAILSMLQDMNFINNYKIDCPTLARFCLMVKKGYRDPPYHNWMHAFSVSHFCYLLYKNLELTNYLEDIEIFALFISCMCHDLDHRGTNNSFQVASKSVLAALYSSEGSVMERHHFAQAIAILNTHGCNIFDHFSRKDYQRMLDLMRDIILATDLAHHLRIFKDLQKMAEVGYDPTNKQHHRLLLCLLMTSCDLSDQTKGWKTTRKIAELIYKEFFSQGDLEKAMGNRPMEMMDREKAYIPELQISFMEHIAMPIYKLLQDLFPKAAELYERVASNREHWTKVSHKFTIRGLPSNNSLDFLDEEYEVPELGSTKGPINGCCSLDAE
The assay is described as follows: Inhibition of cyclic nucleotide PDE activity (Assay I), PDE2. The assay is classed as biochemical, guinea pig. To be noted: mean ± S.E.M. (n); read-out: IC50 on phosphodiesterase isozyme 2. The method, then: as §1, §2, §3, §4

Usually IC50 stands for the concentration that inhibits the measured activity by half. Regarding `CCCCOc1cc(CC2CNC(=O)N2)ccc1OC` (stereo not shown) [Ro 20-1724, reference compound], the IC50 turned out to be 11.4 ± 1.6 µM with PDE4 and 0.0673 µM in assay [1].
For the molecule `COc1ccc(-c2cc(=O)c3c(O)cc(O)cc3o2)cc1O` [Diosmetin], the IC50 was 14.4 ± 6.2 µM in the assay on PDE1 and greater than 100000 nM with PDE3.
In the case of `COc1c(-c2ccc(OC(C)=O)c(OC(C)=O)c2)oc2cc(OC(C)=O)cc(OC(C)=O)c2c1=O` [QMPA, Quercetin 3-O-methyl peracetate], the IC50 in assay [1] was 8.7 µM.
Regarding `O=C(Nc1c(Cl)cncc1Cl)c1ccc(OC(F)F)c(OCC2CC2)c1` [roflumilast], in the assay on PDE4H (HARBS), the PDE4H/PDE4L ratio was 3.
As for `CCCCCC[C@@H]([C@@H](C)O)n1cnc2c(N)ncnc21` (racemic) [EHNA, erythro-9-(2-hydroxy-3-nonyl)adenine, reference compound], on PDE2, the half-maximal inhibitory concentration (IC50) amounted to 4.4 ± 1 µM.
`COc1ccc(C2CC(=O)c3c(OC(C)=O)cc(OC(C)=O)cc3O2)cc1OC(C)=O` (stereo not shown) [HTA, hesperetin triacetate]: the IC50 in assay [1] is greater than 300 µM.
Regarding `Cc1[nH]c(=O)c(C#N)cc1-c1ccncc1` [milrinone, reference compound], the IC50 in the assay with PDE3 is 2400 ± 500 nM.
Consider `CCOC(=O)C1=C[C@]2(CC)CCCN3CCc4c(n1c1ccccc41)[C@@H]32` [vinpocetine, reference compound], for which, in the assay on PDE1, the IC50 amounted to 123 ± 44.9 µM.

The values above are taken from US20060229358A1, “Pharmaceutical composition containing flavonoids” (Taipei Medical University, priority 2005, published 2006).
